Results taken from patent US20200288710A1, “SUBSTITUTED SULPHONAMIDES FOR CONTROLLING ANIMAL PESTS” (BAYER CROPSCIENCE AKTIENGESELLSCHAFT, priority 2016, published 2020).

How the values were obtained:
Type in all cases: in vivo
Meloidogyne incognita = Meloidogyne incognita test; details: 336 h, lettuce, after 14 days, read-out: nematicidal efficacy (formation of galls)
Procedure, shortened: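 Gall formation on lettuce roots scored after 14 days: 0% means gall count equals untreated control, 100% means none. Sand vessels held the compound (acetone concentrate diluted in water), southern root-knot nematode egg/larvae suspension and lettuce seeds.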

Myzus persicae [1] = test: Myzus persicae spray test (Chinese cabbage leaf discs); details: foliar, 120 h, 500 g/ha, after 5-6 days, read-out: efficacy
Procedure, shortened: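 Formulated compound in acetone/dimethylformamide, diluted in water with 1000 ppm emulsifier, was sprayed onto Brassica pekinensis leaf discs carrying mixed-stage Myzus persicae. Percent mortality was read 5-6 days later (0% = no aphids killed, 100% = all killed).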

Phaedon cochleariae = Phaedon cochleariae spray test; details: foliar, 168 h, Chinese cabbage leaf discs, larvae, after 7 days, read-out: efficacy
Protocol: Phaedon cochleariae—Spray Test
To produce a suitable preparation of active compound, 1 part by weight of active compound is dissolved using the specified parts by weight of solvent and made up with water containing an emulsifier concentration of 1000 ppm until the desired concentration is attained. To produce further test concentrations, the formulation is diluted with emulsifier-containing water.
After 7 days, the efficacy in % is determined. 100% means that all the beetle larvae have been killed; 0% means that no beetle larvae have been killed.

Myzus persicae [2] = test: Myzus persicae oral test; details: 120 h, 20 ppm, oral uptake, after 5 days, read-out: efficacy
Procedure, shortened: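 Aphids of mixed ages imbibe, through parafilm, compound solution (acetone stock, water-diluted) combined with sugar-supplemented IPL41 medium to 200 μl. Efficacy read at day 5 as percent killed, 0% meaning no deaths.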

Row | Compound | pest or weed control at 20 ppm (Meloidogyne incognita) [%] | pest or weed control at 500 g/ha (Myzus persicae [1]) [%] | pest or weed control at 500 g/ha (Phaedon cochleariae) [%] | pest or weed control at 20 ppm (Myzus persicae [2]) [%]
1 | Cn1cc(C(=O)NS(=O)(=O)c2cccc(Cl)c2)nc1-c1c(Cl)cccc1Cl [Example 42] | 100 | 100 | 100 | –
2 | Cc1cccc(Cl)c1S(=O)(=O)NC(=O)c1cc(C)n(-c2ncccc2Br)n1 [Example 304] | – | 100 | 100 | 100
3 | CCOc1ccc(Cl)c(S(=O)(=O)NC(=O)c2cn(C)c(-c3c(F)cccc3F)n2)c1 [Example 387] | – | 100 | 100 | 100
4 | Cc1ccccc1S(=O)(=O)NC(=O)c1nc(-c2c(F)cccc2F)n(C)c1C [Example 196] | – | – | 100 | 100
5 | Cc1cccc(OC(F)(F)F)c1S(=O)(=O)NC(=O)c1cn(C)c(-c2c(F)cccc2F)n1 [Example 405] | 90 | – | 100 | 100
6 | CCc1ccc(Cl)cc1S(=O)(=O)NC(=O)c1cn(C)c(-c2cccc(Cl)c2Cl)n1 [Example 461] | – | 100 | 100 | 100
7 | Cn1cc(C(=O)NS(=O)(=O)c2c(Cl)cccc2Br)nc1-c1cccc(Cl)c1Cl [Example 466] | – | 90 | 100 | 100
8 | CCc1ccc(CC)c(S(=O)(=O)NC(=O)c2cn(C)c(-c3c(F)cccc3F)n2)c1 [Example 340] | 90 | – | 100 | –
9 | CCCc1cccc(C(F)(F)F)c1S(=O)(=O)NC(=O)c1cn(C)c(-c2c(F)cccc2F)n1 [Example 370] | – | 90 | 100 | 100
10 | COc1cc(S(=O)(=O)NC(=O)c2cc(C)n(-c3ncccc3Br)n2)c(C)cc1Br [Example 300] | – | 90 | 100 | 100
11 | Cc1ccccc1S(=O)(=O)NC(=O)c1nc(-c2c(F)cccc2F)c(C)n1C [Example 311] | 100 | – | 83 | 100
12 | Cn1cc(C(=O)NS(=O)(=O)c2ccccc2Cl)nc1-c1nccc2ccccc12 [Example 464] | – | 100 | 100 | 90
13 | Cn1cc(C(=O)NS(=O)(=O)c2c(Cl)cccc2C(F)(F)F)nc1-c1cccc(Cl)c1Cl [Example 467] | – | 100 | 100 | 100
14 | COc1ccc(OC)c(S(=O)(=O)NC(=O)c2nc(-c3c(F)cccc3F)n(C)c2C)c1 [Example 413] | – | 90 | 83 | –
15 | Cc1cccc(C(C)C)c1S(=O)(=O)NC(=O)c1cn(C)c(-c2c(F)cccc2F)n1 [Example 361] | 90 | – | 100 | –
16 | Cc1c(-c2c(F)cccc2F)nc(C(=O)NS(=O)(=O)c2ccccc2Cl)n1C [Example 308] | 90 | – | 100 | –
17 | COc1cc(S(=O)(=O)NC(=O)c2cn(C)c(-c3ncccc3Cl)n2)c(C)cc1Br [Example 611] | – | 90 | 100 | 100
18 | Cn1c(-c2ccccc2Cl)nc(C(=O)NS(=O)(=O)c2ccccc2Cl)c1Cl [Example 221] | 100 | – | 100 | 100
19 | Cc1ccccc1S(=O)(=O)NC(=O)c1nc(-c2ccccc2Cl)n(C)c1Cl [Example 205] | 100 | – | 100 | 100
20 | COc1cc(S(=O)(=O)NC(=O)c2cn(C)c(-c3ncccc3F)n2)c(C)cc1Br [Example 610] | – | 100 | 100 | 100
21 | Cn1cc(C(=O)NS(=O)(=O)c2ccccc2Cl)nc1-c1cccc2ccccc12 [Example 479] | 90 | – | 100 | –
22 | Cc1cc(F)c(F)cc1S(=O)(=O)NC(=O)c1cn(C)c(-c2ccccc2Cl)n1 [Example 290] | – | 100 | 100 | 100
23 | Cc1ccccc1S(=O)(=O)NC(=O)c1cn(C)c(-c2cccc3ccccc23)n1 [Example 216] | 90 | – | 100 | 100

Row | Compound | pest or weed control at 20 ppm (Meloidogyne incognita) [%] | pest or weed control at 500 g/ha (Myzus persicae [1]) [%] | pest or weed control at 500 g/ha (Phaedon cochleariae) [%] | pest or weed control at 20 ppm (Myzus persicae [2]) [%]
24 | Cn1cc(C(=O)NS(=O)(=O)c2ccc(Cl)c(Cl)c2)nc1-c1ccccc1Cl [Example 165] | – | 90 | 100 | 90
25 | COc1ccc(C)c(S(=O)(=O)NC(=O)c2cn(C)c(-c3cccc(Cl)c3Cl)n2)c1 [Example 460] | – | 100 | 83 | –
26 | Cc1c(-c2c(F)cccc2F)nc(C(=O)NS(=O)(=O)c2ccccc2Br)n1C [Example 309] | 100 | – | 100 | –
27 | CCc1ccccc1S(=O)(=O)NC(=O)c1cn(C)c(-c2nccc3ccccc23)n1 [Example 469] | – | 90 | 100 | 100
28 | COc1ccc(Br)c(S(=O)(=O)NC(=O)c2cn(C)c(-c3c(F)cccc3F)n2)c1 [Example 143] | – | 90 | 100 | 90
29 | COc1ccc(Cl)c(S(=O)(=O)NC(=O)c2nc(-c3c(F)cccc3F)n(C)c2C)c1 [Example 334] | 90 | – | 100 | –
30 | O=C(NS(=O)(=O)c1ccc(Cl)cc1)c1nc(-c2ccccc2Cl)n(-c2ccccc2)c1Cl [Example 105] | – | – | 100 | –
31 | Cc1ccc(F)cc1S(=O)(=O)NC(=O)c1cc(C)n(-c2ncccc2Br)n1 [Example 303] | – | 100 | 83 | 100
32 | Cc1ccccc1S(=O)(=O)NC(=O)c1cn(C)c(-c2ncccc2Cl)n1 [Example 540] | – | 100 | 100 | 100
33 | COc1ccc(Cl)c(S(=O)(=O)NC(=O)c2nc(-c3ccccc3Cl)n(C)c2Cl)c1 [Example 577] | 100 | – | 100 | –
34 | Cn1cc(C(=O)NS(=O)(=O)c2c(Cl)cccc2Br)nc1-c1c(F)cccc1F [Example 430] | – | 100 | 100 | 100
35 | COc1cc(S(=O)(=O)NC(=O)c2cn(C)c(-c3ccccc3Cl)n2)c(C)cc1Br [Example 286] | 100 | – | 100 | 100
36 | COc1ccc(Br)c(S(=O)(=O)NC(=O)c2cn(C)c(-c3cccc(Cl)c3Cl)n2)c1 [Example 557] | 90 | 90 | – | 100
37 | Cn1cc(C(=O)NS(=O)(=O)c2cccc(Cl)c2)nc1-c1ccccc1Cl [Example 33] | 100 | 90 | – | 100
38 | Cn1cc(C(=O)NS(=O)(=O)c2cccc3c2OC(F)(F)C(F)(F)O3)nc1-c1c(F)cccc1F [Example 312] | 90 | 90 | – | 100
39 | COc1ccc(Cl)c(S(=O)(=O)NC(=O)c2nc(-c3c(F)cccc3F)c(C)n2C)c1 [Example 307] | 100 | – | 100 | –
40 | Cc1ccccc1S(=O)(=O)NC(=O)c1cn(C)c(-c2nccc3ccccc23)n1 [Example 465] | – | 100 | 100 | 100
41 | Cn1cc(C(=O)NS(=O)(=O)c2c(Cl)cccc2Cl)nc1-c1ncccc1F [Example 594] | 90 | 90 | – | 100
42 | Cn1cc(C(=O)NS(=O)(=O)c2c(Cl)cccc2Br)nc1-c1ncccc1F [Example 595] | 90 | 90 | – | 100
43 | CCc1ccsc1S(=O)(=O)NC(=O)c1cn(C)c(-c2c(F)cccc2F)n1 [Example 419] | 90 | 100 | – | 100
44 | Cn1cc(C(=O)NS(=O)(=O)c2ccccc2Br)nc1-c1c(F)cccc1F [Example 119] | 90 | 100 | – | 100
45 | COc1ccc(Cl)c(S(=O)(=O)NC(=O)c2nc(-c3ccccc3Cl)n(C)c2Br)c1 [Example 222] | 100 | – | 100 | –
46 | Cn1cc(C(=O)NS(=O)(=O)c2ccc(Br)cc2Cl)nc1-c1c(F)cccc1F [Example 440] | 100 | 100 | – | 100
